Source: US20080090734A1, “DRUG SCREENING AND TARGET IDENTIFICATION USING SPR IMAGING OF TARGET PROTEIN ARRAYS” (The Trustees of California State University, priority 2006, published 2008)

Key:
Assay in all cases: Antibiotic susceptibility profile
Assay type in all cases: cell-based, Acinetobacter baumannii
Set-up in all cases: key: Resistance; Intermediate; Susceptible
[1] = tested on: A. baumannii clinical isolate LAC 19
Source text: (§1) We obtained over thirty clinical isolates of A. baumannii from nosocomial infections in New York City and Los Angeles. […] Only antibiotics with breakpoints for A. baumannii were used. […] Isolates LA 01 to 20 were acquired from Los Angels County while NY-A to NY-H were obtained from New York City.
(§2) Antibiotic susceptibility profiles of clinical isolates of A. baumannii and reference strains. R, I, and S denote Resistance, Intermediate and Susceptible, respectively. Genetic Profiling of Clinical Isolates of A. baumannii

[2] = tested on: A. baumannii reference strain SDF
Source text: as §1, §2

[3] = tested on: A. baumannii reference strain 17978; conditions: strain 17978 (ATCC)
Source text: as §1, §2

[4] = tested on: A. baumannii clinical isolate LAC 01
Source text: as §1, §2

[5] = tested on: A. baumannii clinical isolate LAC 11
Source text: as §1, §2

[6] = tested on: A. baumannii clinical isolate LAC 03
Source text: as §1, §2

[7] = tested on: A. baumannii clinical isolate LAC 14
Source text: as §1, §2

[8] = tested on: A. baumannii clinical isolate NY E
Source text: as §1, §2

[9] = tested on: A. baumannii clinical isolate LAC 17
Source text: as §1, §2

[10] = tested on: A. baumannii clinical isolate LAC 13
Source text: as §1, §2

[11] = tested on: A. baumannii clinical isolate LAC 20
Source text: as §1, §2

[12] = tested on: A. baumannii reference strain 19606; conditions: strain 19606 (ATCC)
Source text: as §1, §2

[13] = tested on: A. baumannii clinical isolate NY B
Source text: as §1, §2

[14] = tested on: A. baumannii clinical isolate LAC 06
Source text: as §1, §2

[15] = tested on: A. baumannii clinical isolate NY A
Source text: as §1, §2

[16] = tested on: A. baumannii clinical isolate NY F
Source text: as §1, §2

[17] = tested on: A. baumannii clinical isolate LAC 12
Source text: as §1, §2

[18] = tested on: A. baumannii reference strain 15839; conditions: strain 15839 (ATCC)
Source text: as §1, §2

[19] = tested on: A. baumannii clinical isolate NY H
Source text: as §1, §2

[20] = tested on: A. baumannii clinical isolate LAC 10
Source text: as §1, §2

[21] = tested on: A. baumannii reference strain AYE
Source text: as §1, §2

[22] = tested on: A. baumannii clinical isolate LAC 09
Source text: as §1, §2

[23] = tested on: A. baumannii clinical isolate LAC 05
Source text: as §1, §2

[24] = tested on: A. baumannii clinical isolate LAC 16
Source text: as §1, §2

[25] = tested on: A. baumannii clinical isolate LAC 08
Source text: as §1, §2

[26] = tested on: A. baumannii clinical isolate NY C
Source text: as §1, §2

[27] = tested on: A. baumannii clinical isolate LAC 18
Source text: as §1, §2

[28] = tested on: A. baumannii clinical isolate NY D
Source text: as §1, §2

[29] = tested on: A. baumannii clinical isolate LAC 02
Source text: as §1, §2

[30] = tested on: A. baumannii clinical isolate LAC 04
Source text: as §1, §2

[31] = tested on: A. baumannii clinical isolate LAC 07
Source text: as §1, §2

[32] = tested on: A. baumannii clinical isolate LAC 15
Source text: as §1, §2

[33] = tested on: A. baumannii clinical isolate NY G
Source text: as §1, §2

With CC(C)(O/N=C(\C(=O)N[C@@H]1C(=O)N2C(C(=O)[O-])=C(C[n+]3ccccc3)CS[C@H]12)c1csc(N)n1)C(=O)O [CAZ, Ceftazidime] the Antibiotic susceptibility [1] was “R”, the Antibiotic susceptibility [2] was “S” and the Antibiotic susceptibility [3] was “S”. The Antibiotic susceptibility [4] was “R”, the Antibiotic susceptibility [5] was “R” and the Antibiotic susceptibility [6] was “R”. The Antibiotic susceptibility [7] was “R”, the Antibiotic susceptibility [8] was “R” and the Antibiotic susceptibility [9] was “R”. The Antibiotic susceptibility [10] was “R”, the Antibiotic susceptibility [11] was “R” and the Antibiotic susceptibility [12] was “S”. The Antibiotic susceptibility [13] was “R”, the Antibiotic susceptibility [14] was “S” and the Antibiotic susceptibility [15] was “R”. For the same compound, the Antibiotic susceptibility [16] was “R”, the Antibiotic susceptibility [17] was “R” and the Antibiotic susceptibility [18] was “R”. The Antibiotic susceptibility [19] was “R”, the Antibiotic susceptibility [20] was “R” and the Antibiotic susceptibility [21] was “R”. For the same compound, the Antibiotic susceptibility [22] was “R”, the Antibiotic susceptibility [23] was “I” and the Antibiotic susceptibility [24] was “R”. The Antibiotic susceptibility [25] was “I”, the Antibiotic susceptibility [26] was “R” and the Antibiotic susceptibility [27] was “R”. The Antibiotic susceptibility [28] was “R”, the Antibiotic susceptibility [29] was “R” and the Antibiotic susceptibility [30] was “R”. For the same compound, the Antibiotic susceptibility [31] was “R”, the Antibiotic susceptibility [32] was “R” and the Antibiotic susceptibility [33] was “R”.
For C[C@@H](O)[C@H]1C(=O)N2C(C(=O)O)=C(S[C@@H]3CN[C@H](C(=O)N(C)C)C3)[C@H](C)[C@H]12 [MEM, Meropenem], the Antibiotic susceptibility [1] was “R”, the Antibiotic susceptibility [2] was “S” and the Antibiotic susceptibility [3] was “S”. The Antibiotic susceptibility [4] was “R”, the Antibiotic susceptibility [5] was “R” and the Antibiotic susceptibility [6] was “I”. For the same compound, the Antibiotic susceptibility [7] was “S”, the Antibiotic susceptibility [8] was “R” and the Antibiotic susceptibility [9] was “S”. For the same compound, the Antibiotic susceptibility [10] was “S”, the Antibiotic susceptibility [11] was “I” and the Antibiotic susceptibility [12] was “S”. For the same compound, the Antibiotic susceptibility [13] was “R”, the Antibiotic susceptibility [14] was “S” and the Antibiotic susceptibility [15] was “R”. The Antibiotic susceptibility [16] was “R”, the Antibiotic susceptibility [17] was “S” and the Antibiotic susceptibility [18] was “S”. The Antibiotic susceptibility [19] was “R”, the Antibiotic susceptibility [20] was “R” and the Antibiotic susceptibility [21] was “S”. The Antibiotic susceptibility [22] was “R”, the Antibiotic susceptibility [23] was “S” and the Antibiotic susceptibility [24] was “S”. For the same compound, the Antibiotic susceptibility [25] was “S”, the Antibiotic susceptibility [26] was “R” and the Antibiotic susceptibility [27] was “S”. For the same compound, the Antibiotic susceptibility [28] was “R”, the Antibiotic susceptibility [29] was “R” and the Antibiotic susceptibility [30] was “S”. The Antibiotic susceptibility [31] was “R”, the Antibiotic susceptibility [32] was “R” and the Antibiotic susceptibility [33] was “R”.
In the case of NC[C@H]1O[C@H](O[C@H]2[C@H](O)[C@@H](O[C@H]3O[C@H](CO)[C@@H](O)[C@H](N)[C@H]3O)[C@H](N)C[C@@H]2N)[C@H](N)C[C@@H]1O [TOB, Tobramycin], the Antibiotic susceptibility [1] was “R”, the Antibiotic susceptibility [2] was “S” and the Antibiotic susceptibility [3] was “S”. The Antibiotic susceptibility [4] was “R”, the Antibiotic susceptibility [5] was “S” and the Antibiotic susceptibility [6] was “R”. For the same compound, the Antibiotic susceptibility [7] was “S”, the Antibiotic susceptibility [8] was “R” and the Antibiotic susceptibility [9] was “R”. For the same compound, the Antibiotic susceptibility [10] was “S”, the Antibiotic susceptibility [11] was “R” and the Antibiotic susceptibility [12] was “S”. The Antibiotic susceptibility [13] was “R”, the Antibiotic susceptibility [14] was “S” and the Antibiotic susceptibility [15] was “R”. For the same compound, the Antibiotic susceptibility [16] was “R”, the Antibiotic susceptibility [17] was “S” and the Antibiotic susceptibility [18] was “R”. For the same compound, the Antibiotic susceptibility [19] was “R”, the Antibiotic susceptibility [20] was “R” and the Antibiotic susceptibility [21] was “R”. The Antibiotic susceptibility [22] was “R”, the Antibiotic susceptibility [23] was “R” and the Antibiotic susceptibility [24] was “R”. For the same compound, the Antibiotic susceptibility [25] was “R”, the Antibiotic susceptibility [26] was “R” and the Antibiotic susceptibility [27] was “R”. For the same compound, the Antibiotic susceptibility [28] was “R”, the Antibiotic susceptibility [29] was “R” and the Antibiotic susceptibility [30] was “R”. The Antibiotic susceptibility [31] was “R”, the Antibiotic susceptibility [32] was “S” and the Antibiotic susceptibility [33] was “I”.
Gentamicin was tested, and the Antibiotic susceptibility [1] was “R”, the Antibiotic susceptibility [2] was “S” and the Antibiotic susceptibility [3] was “S”. The Antibiotic susceptibility [4] was “R”, the Antibiotic susceptibility [5] was “R” and the Antibiotic susceptibility [6] was “R”. For the same compound, the Antibiotic susceptibility [7] was “R”, the Antibiotic susceptibility [8] was “R” and the Antibiotic susceptibility [9] was “R”. For the same compound, the Antibiotic susceptibility [10] was “I”, the Antibiotic susceptibility [11] was “R” and the Antibiotic susceptibility [12] was “R”. For the same compound, the Antibiotic susceptibility [13] was “R”, the Antibiotic susceptibility [14] was “R” and the Antibiotic susceptibility [15] was “R”. For the same compound, the Antibiotic susceptibility [16] was “R”, the Antibiotic susceptibility [17] was “R” and the Antibiotic susceptibility [18] was “R”. The Antibiotic susceptibility [19] was “R”, the Antibiotic susceptibility [20] was “R” and the Antibiotic susceptibility [21] was “R”. For the same compound, the Antibiotic susceptibility [22] was “R”, the Antibiotic susceptibility [23] was “R” and the Antibiotic susceptibility [24] was “R”. The Antibiotic susceptibility [25] was “R”, the Antibiotic susceptibility [26] was “R” and the Antibiotic susceptibility [27] was “R”. The Antibiotic susceptibility [28] was “R”, the Antibiotic susceptibility [29] was “I” and the Antibiotic susceptibility [30] was “R”. For the same compound, the Antibiotic susceptibility [31] was “R”, the Antibiotic susceptibility [32] was “I” and the Antibiotic susceptibility [33] was “S”.
